The subject of test [1] is MDA-MB-468 cells. Put plainly: MTT viability, EJ1 in combination with pathway inhibitors or ROS scavenger. Format: cell-based. The note with it: MDA-MB-468, 20 μmol/l EJ1 plus inhibitor. The procedure:
(a) MDA-MB-468 cells were treated with either 20 μmol/l CP (A-D) or 20 μmol/l EJ1 (E-H) for 0 minutes (A, E), 15 minutes (B, F), 60 minutes (C, G), or 16 hours (D, H). Arrows indicate membrane blebs and arrowheads indicate intracellular vacuoles. (b) BxPC3 cells were serum starved overnight, then treated with 20 μmol/l EJ1 and 50 ng/ml Texas-Red-labeled EGF, and imaged for 30 minutes with an Olympus IX71 deconvolution microscope. Panels A-F are bright field images, D′-F′ are red channel images (Texas-Red-labeled EGF). Arrowheads indicate locations of EGF accumulation on membrane protrusions. (c) Diagram depicts Ca^2+/CaM-regulated signaling pathway, and inhibitors acting at different targets are indicated. (d) MDA-MB-468 cells were pretreated with 50 μmol/l W-13 (D-F), 10 μmol/l ML-7 (G-I), or 10 μmol/l Y-27632 (J-L) in complete medium at 37° C. for 30 minutes and then treated with vehicle, 20 μmol/l CP, or 20 μmol/l EJ1 in combination with W-13, ML-7, or Y-27632 in complete medium at 37° C. for 15 minutes. Images represent the bright field images. Arrows indicate membrane blebbing. (e) MDA-MB-468 cells were untreated (UNTX) or treated with water (Vehicle), 20 μmol/l EJ1, 10 μmol/l Y-27632, or 10 μmol/l ML-7 alone or EJ1 in combination with Y-27632 or ML-7, and the viability was assessed by the MTT assay. **P<0.01 (Student's t-test). Error bars, mean±SD. (f) MDA-MB-468 cells were either in serum-free medium (SF) or stimulated with 100 ng/ml EGF (EGF) and then incubated with water (Vehicle), 20 μmol/l CP, 20 μmol/l EJ1, 2 μmol/l ionomycin, 50 μmol/l W-13, 100 μmol/l KN-93, or EJ1 in combination with ionomycin for 15 minutes. Lysates were immunoblotted with antibodies as indicated. (g) Stable, neomycin-selected NIH3T3 cell lines were created, expressing either Rac1 wild-type (Rac1-WT) or Rac1 constitutively active mutant (Rac1-Q61L). Cells were treated with water (Vehicle), 20 μmol/l CP, or 20 μmol/l EJ1, and the viability was assessed by MTT. ***P<0.001 (Student's t-test). Error bars, mean±SD.
(a) MDA-MB-468 cells were incubated in serum-free media with 200 nmol/l MitoTracker Red CMXRos and 5 μg/ml Hoechst 33342 nuclear stain, followed by either 20 μmol/l CP (A-B′) or 20 μmol/l EJ1 (C-D′), and imaged at 0 minutes (A, A′; and C, C′) or at 5 minutes (B, B′; and D, D′). (b) MDA-MB-468 cells were incubated with 1 μmol/l JC-1, followed by 20 μmol/l CP, 20 μmol/l EJ1, or 50 μmol/l CCCP. Results were calculated as the ratio of the 514/590 nm to 514/529 nm fluorescences and the ratio for CP-treated sample was set as 1. *P<0.05, Student's t-test. Error bars, mean±SD. […] Cells were then sorted by flow cytometer and analyzed by Cellquest Pro 4.0 software. The results are expressed as the percentage of DCFH fluorescence-positive cells. *P<0.05, Student's t-test. […]

Test [2] relates to MDA-MB-468 cells. Briefly: Membrane blebbing / cell morphology, bright field imaging. Type of test: cell-based. The note with it: for inhibition of EJ1-induced membrane blebbing: 50 μmol/l W-13, 10 μmol/l ML-7, 10 μmol/l Y-27632 with 20 μmol/l EJ1. The procedure: (a) MDA-MB-468 cells were treated with either 20 μmol/l CP (A-D) or 20 μmol/l EJ1 (E-H) for 0 minutes (A, E), 15 minutes (B, F), 60 minutes (C, G), or 16 hours (D, H). […] (b) BxPC3 cells were serum starved overnight, then treated with 20 μmol/l EJ1 and 50 ng/ml Texas-Red-labeled EGF, and imaged for 30 minutes with an Olympus IX71 deconvolution microscope. Panels A-F are bright field images, D′-F′ are red channel images (Texas-Red-labeled EGF). […] (c) Diagram depicts Ca^2+/CaM-regulated signaling pathway, and inhibitors acting at different targets are indicated. (d) MDA-MB-468 cells were pretreated with 50 μmol/l W-13 (D-F), 10 μmol/l ML-7 (G-I), or 10 μmol/l Y-27632 (J-L) in complete medium at 37° C. for 30 minutes and then treated with vehicle, 20 μmol/l CP, or 20 μmol/l EJ1 in combination with W-13, ML-7, or Y-27632 in complete medium at 37° C. for 15 minutes. Images represent the bright field images. […] Error bars, mean±SD. (f) MDA-MB-468 cells were either in serum-free medium (SF) or stimulated with 100 ng/ml EGF (EGF) and then incubated with water (Vehicle), 20 μmol/l CP, 20 μmol/l EJ1, 2 μmol/l ionomycin, 50 μmol/l W-13, 100 μmol/l KN-93, or EJ1 in combination with ionomycin for 15 minutes. Lysates were immunoblotted with antibodies as indicated. […] Error bars, mean±SD. (From Hart et al., 2013, Molecular Therapy 21(11):1996-2007, the disclosure of which is incorporated herein in its entirety.)
Ca^2+/CaM signaling regulates many different cellular events, such as membrane dynamics, cell survival, mitochondrial function, and motility. We began by evaluating whether EJ1 was affecting membrane dynamics by treating MDA-MB-468 cells with either CP (FIG. 8) or EJ1 (FIG. 8) and examining cell morphology. […] Ca^2+/CaM signaling regulates many different downstream pathways, such as CaMKII and MLCK. CaMKII regulates cell proliferation, whereas MLCK phosphorylates myosin light chain (MLC) and regulates actinomyosin reorganization during membrane blebbing (as depicted in FIG. 8). To investigate whether EJ1-induced membrane blebbing was through the MLCK pathway, MDA-MB-468 cells were treated with vehicle, CP, or EJ1 alone (A-C) or in combination with the CaM inhibitor W-13 or the MLC phosphorylation inhibitors ML-7 and Y-27632 (D-L).

Test [3] has as its system MDA-MB-468 cells. Conditions: for inhibitor effect on cell survival after three days of treatment: MDA-MB-468, 20 uM peptide (FIG. 1); for effect on cell viability (MTT): MDA-MB-468, 3 days of treatment (FIG. 6). The procedure:
Inhibitor peptides were evaluated on their ability to inhibit growth of triple-negative breast cancer cells MDA-MB-468 (20 uM peptide treatment). […] SEQ ID NO: 13 is […] SEQ ID NO: 14 is […] SEQ ID NO: 15 is […] SEQ ID NO: 16 is […] SEQ ID NO: 17 is […] SEQ ID NO: 18 is […] SEQ ID NO: 19 is […] SEQ ID NO: 20 is […] SEQ ID NO: 21 is […] SEQ ID NO: 22 is […] SEQ ID NO: 23 is […] SEQ ID NO: 24 is […] SEQ ID NO: 25 is […]
Peptide designations are indicated in the right column. Changes from EJ1 in EJ2-11 are denoted in the second column from the right. (d-j) Cell lines were treated daily with 20 μmol/l EJ1, 20 μmol/l CP, or vehicle (water) for 3 days unless otherwise noted, and cell viability was determined by the MTT assay. Growth rates for vehicle-treated cells were set to 100%, and CP and EJ1 rates were adjusted accordingly. *P<0.05, **P<0.01, ***P<0.001 (Student's t-test). Error bars, mean±SD. (From Hart et al., 2013, Molecular Therapy 21(11):1996-2007, the disclosure of which is incorporated herein in its entirety.)
To do this, we created cell-penetrating peptides to act as dominant-negative “decoys,” thereby inhibiting endogenous jxm interactions. Peptides specific for jxm subdomains were synthesized downstream of the protein transduction domain-4 (PTD4; FIG. 6). Next, the effect of peptide treatment on cell viability was analyzed on the breast cancer cell line MDA-MB-468 by MTT (3-[4,5-dimethylthiazol-2-yl]-2,5-diphenyl tetra-zolium bromide) analysis after 3 days of treatment.
Protein lysate preparation, immunoprecipitation, and western blotting were performed as described previously. For cross-linking, cells were first incubated according to manufacturer instructions with 3 μmol/l DMS, a membrane-permeable, noncleavable, cross-linking agent (Thermo Scientific, Waltham, Mass.). Cells were analyzed both by the MTT assay following manufacturer's instructions (Sigma) and using a U-Quant Spectrophotometer (Bio-TEK Instruments, Winooski, Vt.).

The subject of test [4] is patient-derived glioma lines (BT145, BT147, GB16, GB7, GB42). Briefly: Viability of patient-derived GBM cells. Type of test: cell-based. The source says:
FIG. 13A and FIG. 13B show treatment of patient-derived GBM cells with various EGFR inhibitor peptides.
EGFR is amplified or mutated in more than 40% of glioblastoma multiforme (GBM) tumors. Referring to FIG. 13-14, inhibitor peptides of the present invention were used to treat GBM cells and tumors.

No end group written: not given here.

On to `Cn1cnc(=N)c2[nH]cnc21` [3-MA], for which, in test [1], the “effect of co-treatment on EJ1-induced loss of cell viability (MTT)” value was “not able to rescue”.

For `COc1cc2ncnc(Nc3cccc(Cl)c3)c2cc1OC` [AG1478], in test [2] (EJ1 20 μmol/l, 15 minutes), the membrane blebbing result is “No membrane blebbing was observed”.

As for `O=S(=O)(c1cccc2c(I)cccc12)N1CCCNCC1` [ML-7], the “effect of co-treatment on EJ1-induced loss of cell viability (MTT)” value in test [1] was “significantly reduce the effects of EJ1”. Moreover, the “inhibition of EJ1-induced membrane blebbing” value (“inhibition” below) in test [2] is given as “completely inhibited”.

As for `NCCCCNS(=O)(=O)c1ccc2c(Cl)cccc2c1` [W-13], in test [2], the “inhibition” value is “completely inhibited”.

Consider `C[C@@H](N)[C@H]1CC[C@H](C(=O)Nc2ccncc2)CC1` [Y-27632], for which, in test [1], the “effect of co-treatment on EJ1-induced loss of cell viability (MTT)” value is given as “significantly reduce the effects of EJ1”. Further, the “inhibition” value in test [2] is “completely inhibited”.

For “YARAAARQARAFMRDRHIVRDRTLRDLLQERE (Artificial peptide sequence related to EGFR juxtamembrane sequence) [EJ10]”, in test [3], the “inhibitor effect on cell survival after three days of treatment” value is listed as “almost no inhibitor effect” and the “effect on cell viability (MTT)” value is reported as “completely ablated the effects on viability”.

For the compound YARAAARQARAFMRQRHIVRQRTLRQLLQERE [EJ11], the “effect on cell viability (MTT)” value in test [3] is on record as “only marginally blocked the antiproliferative effects of EJ1”.

For the compound “YARAAARQARAFMRRRHIVRKRTL (Artificial peptide sequence related to EGFR juxtamembrane sequence) [EJ2]”, in test [3], the “effect on cell viability (MTT)” value was “partial reduction”.

As for “YARAAARQARAIVRKRTLRRLLQERE (Artificial peptide sequence related to EGFR juxtamembrane sequence) [EJ3]”, the “effect on cell viability (MTT)” value in test [3] is “partial reduction”.

As to “YARAAARQARALLQERELVEPLT (Artificial peptide sequence related to EGFR juxtamembrane sequence) [EJ6]”, the “effect on cell viability (MTT)” value in test [3] was “No antiproliferative effect”.

Turning to “YARAAARQARARDRHIVRDRTLRD (Artificial peptide sequence related to EGFR juxtamembrane sequence) [nlsCPv4]”, in test [3], the “inhibitor effect on cell survival after three days of treatment” value is recorded as “almost no inhibitor effect”.

Turning to “YARAAARQARARRRHIVRKRTLRR (Artificial peptide sequence related to EGFR juxtamembrane sequence) [EJ4]”, the “effect on cell viability (MTT)” value in test [3] was “No antiproliferative effect”.

As to “YARAAARQARARTLRRLLQERE (Artificial peptide sequence related to EGFR juxtamembrane sequence) [EJ5]”, in test [3], the “effect on cell viability (MTT)” value is “partial reduction”.

“control peptide: control peptide compared to stapled EJ1 on patient-derived glioma lines (YARAAARQARAFMRDRHIVRDRTLRDLLQERE; Artificial peptide sequence related to EGFR juxtamembrane sequence) [reference compound]”: the “cell viability of patient-derived glioma lines” value is “no effect on cell viability” in test [4] (BT145 and BT147 (FIG. 13A)); “no effect on cell viability” in test [4] (GB16, GB7, GB42 and BT147, 24 hr treatment (FIG. 13B)).

The record behind these values is patent publication US10066004B2 (ARIZONA CANCER THERAPEUTICS, LLC, priority 2010, dated 2018).
